Results from patent US10723741B1, “DNA polymerase IIIC inhibitors and use thereof” (Acurx Pharmaceuticals, LLC, priority 2018, dated 2020).
≈ marks a conversion by molar mass, not a printed value.

Columns and labels:
Assay type in all cases: cell-based
[1] = system: Staphylococcus aureus NRS384 (MRSA); test: Broth microdilution MIC, S. aureus NRS384 (MRSA); settings: Staphylococcus aureus; S. aureus NRS 384; broth microdilution, 37° C., 20 hours; read-out: MIC NRS 384 (MRSA)
Procedure, shortened: (§1)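 Two-fold dilutions from 64 to 0.0625 μg/ml final, 1% DMSO, were inoculated at ~5.0×10^5 cfu/ml in the strain's test medium and kept 20 h at 37 °C in ambient atmosphere. Colonies were grown on MHA, with S. pneumoniae on blood agar under 5% CO2.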

[2] = system: Bacillus subtilis ATCC 6633; test: Broth microdilution MIC, B. subtilis ATCC 6633; settings: ATCC6633, broth microdilution, 37° C., 20 hours, read-out: MIC B. subtilis ATCC 6633
Procedure, shortened: as §1

[3] = system: Enterococcus faecalis ATCC 29212; test: Broth microdilution MIC, E. faecalis ATCC 29212; settings: ATCC29212, broth microdilution, 37° C., 20 hours, read-out: MIC E. faecalis ATCC 29212
Procedure, shortened: as §1

[4] = system: Staphylococcus aureus ATCC 29213 (MSSA); test: Broth microdilution MIC, S. aureus ATCC 29213 (MSSA); settings: broth microdilution, 37° C., 20 hours, read-out: MIC S. aureus ATCC 29213 (MSSA)
Procedure, shortened: as §1

[5] = system: Enterococcus faecium ATCC 700221 (VRE); test: Broth microdilution MIC, E. faecium ATCC 700221 (VRE); settings: Enterococcus faecium; broth microdilution, 37° C., 20 hours; read-out: MIC E. faecium ATCC 700221 (VRE)
Procedure, shortened: as §1

[6] = system: Streptococcus pneumoniae ATCC 49619; test: Broth microdilution MIC, S. pneumoniae ATCC 49619; settings: ATCC49619, broth microdilution, 37° C., 20 hours, read-out: MIC S. pneumoniae ATCC 49619
Procedure, shortened: as §1

[7] = system: Escherichia coli ATCC 25922; test: Broth microdilution MIC, E. coli ATCC 25922 (MHIIB w & w/o 4 mM EDTA); settings: broth microdilution, 37° C., 20 hours; for MIC: Escherichia coli, ATCC25922, without EDTA, read-out: MIC E. coli ATCC 25922; for MIC E. coli ATCC 25922 + 4 mM EDTA: with 4 mM EDTA
Procedure, shortened: as §1

| Compound | MIC [1] [µg/mL] | MIC [2] [µg/mL] | MIC [3] [µg/mL] | MIC [4] [µg/mL] | MIC [5] [µg/mL] | MIC [6] [µg/mL] | MIC [7] [µg/mL] | MIC E. coli ATCC 25922 + 4 mM EDTA [7] [µg/mL] |
| --- | --- | --- | --- | --- | --- | --- | --- | --- |
| O=C(c1cccnc1)N1CCC(n2nc(Cl)c3nc(NCc4ccc(Cl)c(Cl)c4)[nH]c(=O)c32)CC1 [Compound 318, 3-Chloro-5-[(3,4-dichlorophenyl)methylamino]-1-[1-(pyridine-3-carbonyl)-4-piperidyl]-6H-pyrazolo[4,3-d]pyrimidin-7-one] | 2 (≈ 3.75 µM) | 1 (≈ 1.88 µM) | 2 (≈ 3.75 µM) | 2 (≈ 3.75 µM) | 1 (≈ 1.88 µM) | 4 (≈ 7.51 µM) | > 64 | >64 |
| Cl.O=C(c1ccncc1)N1CCC(n2nc(F)c3nc(NCc4ccc(F)c(F)c4)[nH]c(=O)c32)CC1 [Compound 319, 5-((3,4-difluorobenzyl)amino)-3-fluoro-1-(1-isonicotinoylpiperidin-4-yl)-1H-pyrazolo[4,3-d]pyrimidin-7(6H)-one hydrochloride] | 8 | 2 | 8 | 8 | 4 | 4 | > 64 | >64 |
| O=c1c2c(cnn2CCOCCO)nc(NCc2ccc(Cl)c(Cl)c2)n1COP(=O)(O)O [Compound 320, (5-((3,4-dichlorobenzyl)amino)-1-(2-(2-hydroxyethoxy)ethyl)-7-oxo-1H-pyrazolo[4,3-d]pyrimidin-6(7H)-yl)methyl dihydrogen phosphate] | > 64 | > 64 | > 64 | > 64 | > 64 | > 64 | > 64 | >64 |
